Patent US5401749A, “9-amino-1,4ethano-1,2,3,4-tetrahydroacridine and related compounds” (Hoechst-Roussel Pharmaceuticals Inc., priority 1988, dated 1995)
Like-named read-outs stand apart in the source and are kept apart here.

Legend:
Acetylcholinesterase = Acetylcholinesterase (Homo sapiens, UniProt P22303); test: Acetylcholinesterase Inhibition Assay (photometric method of Ellman et al.); assay type: biochemical
[1] = test system: Scopolamine Induced Memory Deficit; test: Dark Avoidance Assay (reversal of scopolamine induced memory deficit); assay type: in vivo; details: mice, s.c., tested again after 24 hours
Description: This utility can also be ascertained by determining the ability of these compounds to restore cholinergically deficient memory in the Dark Avoidance Assay. In this assay mice are tested for their ability to remember an unpleasant stimulus for a period of 24 hours. A mouse is placed in a chamber that contains a dark compartment; a strong incadescent light drives it to the dark compartment, where an electric shock is administered through metal plates on the floor. The animal is removed from the testing apparatus and tested again, 24 hours later, for the ability to remember the electric shock.
If scopolamine, an anticholinergic that is known to cause memory impairment, is administered before an animal's initial exposure to the test chamber, the animal re-enters the dark compartment shortly after being placed in the test chamber 24 hours later. This effect of scopolamine is blocked by an active test compound, resulting in a greater interval before re-entry into the dark compartment.
The test results are expressed as the percent of a group of animals in which the effect of scopolamine is blocked, as manifested by an increased interval between being placed in the test chamber and re-entering the dark compartment. Results of Dark Avoidance Assay for some of the compounds of this invention are presented in Table 2 along with a result for a reference compound.

[2] = photometric method of Ellman et al., read-out: Acetylcholinesterase Inhibition IC50

Chain of Acetylcholinesterase (P22303 32-614): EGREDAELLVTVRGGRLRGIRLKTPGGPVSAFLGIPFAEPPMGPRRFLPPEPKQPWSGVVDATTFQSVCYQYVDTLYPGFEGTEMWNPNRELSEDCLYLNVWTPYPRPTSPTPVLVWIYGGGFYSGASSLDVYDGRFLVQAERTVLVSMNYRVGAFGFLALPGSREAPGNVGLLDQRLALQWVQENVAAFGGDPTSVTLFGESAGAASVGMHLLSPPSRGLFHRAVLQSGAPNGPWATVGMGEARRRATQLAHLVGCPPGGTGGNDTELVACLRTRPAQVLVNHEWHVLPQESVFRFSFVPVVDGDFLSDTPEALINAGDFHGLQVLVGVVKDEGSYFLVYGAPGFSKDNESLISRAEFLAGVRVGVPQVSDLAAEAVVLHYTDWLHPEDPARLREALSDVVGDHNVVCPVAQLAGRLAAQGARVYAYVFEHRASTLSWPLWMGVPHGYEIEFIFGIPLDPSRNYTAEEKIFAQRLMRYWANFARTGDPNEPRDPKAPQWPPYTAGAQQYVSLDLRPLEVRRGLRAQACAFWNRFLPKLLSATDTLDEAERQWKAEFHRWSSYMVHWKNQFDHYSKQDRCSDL

| Compound | IC50 (Acetylcholinesterase; [2]) [µM] | IC50 (Acetylcholinesterase) [µM] | also measured |
| --- | --- | --- | --- |
| Nc1c2c(nc3ccccc13)C1C=CC2CC1 (centres unmarked) [9-Amino-1,4-dihydro-1,4-ethanoacridine] | 1.4 | – | – |
| Nc1c2c(nc3ccccc13)C1CCC2CC1 [9-Amino-1,4-ethano-1,2,3,4-tetrahydroacridine] | 6.6 | – | – |
| c1ccc(CNc2c3c(nc4ccccc24)C2CCC3CC2)cc1 [9-Benzylamino-1,4-ethano-1,2,3,4-tetrahydroacridine] | 78 | – | – |
| Nc1c2c(nc3ccccc13)C1CCC2C1 (centres unmarked) [9-Amino-1,4-methano-1,2,3,4-tetrahydroacridine] | – | – | % of Animals with Scopolamine Induced Memory Deficit Reversal ([1]; 2.5 mg/kg of body weight): 40% |
| FC(F)(F)c1ccc2c(NCc3ccccc3)c3c(nc2c1)C1CCC3C1 (centres unmarked) [9-Benzylamino-1,4-methano-1,2,3,4-tetrahydro-6-trifluoromethylacridine] | > 1000 | – | – |
| Nc1c2c(nc3cc(F)ccc13)C1CCC2C1 (centres unmarked) [9-Amino-6-fluoro-1,4-methano-1,2,3,4-tetrahydroacridine] | – | 0.08 | % of Animals with Scopolamine Induced Memory Deficit Reversal ([1]; 0.63 mg/kg of body weight): 9% |
| c1ccc(Nc2c3c(nc4ccccc24)C2CCC3C2)cc1 (centres unmarked) [9-Phenylamino-1,4-methano-1,2,3,4-tetrahydroacridine] | – | > 1000 | % of Animals with Scopolamine Induced Memory Deficit Reversal ([1]; 0.16 mg/kg of body weight): 20% |
| Nc1c2c(nc3cc(C(F)(F)F)ccc13)C1CCC2C1 (centres unmarked) [9-Amino-1,4-methano-1,2,3,4-tetrahydro-6-trifluoromethylacridine] | – | 4 | % of Animals with Scopolamine Induced Memory Deficit Reversal ([1]; 0.16 mg/kg of body weight): 20% |
| C1=CC2CCC1c1nc3ccccc3c(NCc3ccccc3)c12 (centres unmarked) [9-Benzylamino-1,4-dihydro-1,4-ethanoacridine] | 52 | – | – |
| Cc1ccc2c(NCc3ccccc3)c3c(nc2c1)C1CCC3C1 (centres unmarked) [9-Benzylamino-1,4-methano-6-methyl-1,2,3,4-tetrahydroacridine] | 31 | – | – |
| CNC(=O)Oc1ccc2c(c1)[C@]1(C)CCN(C)[C@@H]1N2C [Physostigmine, reference compound] | – | – | % of Animals with Scopolamine Induced Memory Deficit Reversal ([1]; 0.31 mg/kg of body weight): 20% |
| c1ccc(CNc2c3c(nc4ccccc24)C2CCC3C2)cc1 (centres unmarked) [9-Benzylamino-1,4-methano-1,2,3,4-tetrahydroacridine] | > 1000 | – | – |
| Cc1ccc2c(N)c3c(nc2c1)C1CCC3C1 (centres unmarked) [9-Amino-1,4-methano-6-methyl-1,2,3,4-tetrahydroacridine] | – | 0.3 | % of Animals with Scopolamine Induced Memory Deficit Reversal ([1]; 2.5 mg/kg of body weight): 36% |
